Consider 14 compounds from patent publication US20210198256A1, “COMPOUNDS FOR THE DEGRADATION OF BRD9 OR MTH1” (C4 Therapeutics, Inc., priority 2018, published 2021).

The term DC50 denotes the concentration at which degradation of the target reaches its halfway point.

The assay deals with T1, BRD9 (Homo sapiens, UniProt Q9H8M2).
T1 sequence (Q9H8M2 1-597): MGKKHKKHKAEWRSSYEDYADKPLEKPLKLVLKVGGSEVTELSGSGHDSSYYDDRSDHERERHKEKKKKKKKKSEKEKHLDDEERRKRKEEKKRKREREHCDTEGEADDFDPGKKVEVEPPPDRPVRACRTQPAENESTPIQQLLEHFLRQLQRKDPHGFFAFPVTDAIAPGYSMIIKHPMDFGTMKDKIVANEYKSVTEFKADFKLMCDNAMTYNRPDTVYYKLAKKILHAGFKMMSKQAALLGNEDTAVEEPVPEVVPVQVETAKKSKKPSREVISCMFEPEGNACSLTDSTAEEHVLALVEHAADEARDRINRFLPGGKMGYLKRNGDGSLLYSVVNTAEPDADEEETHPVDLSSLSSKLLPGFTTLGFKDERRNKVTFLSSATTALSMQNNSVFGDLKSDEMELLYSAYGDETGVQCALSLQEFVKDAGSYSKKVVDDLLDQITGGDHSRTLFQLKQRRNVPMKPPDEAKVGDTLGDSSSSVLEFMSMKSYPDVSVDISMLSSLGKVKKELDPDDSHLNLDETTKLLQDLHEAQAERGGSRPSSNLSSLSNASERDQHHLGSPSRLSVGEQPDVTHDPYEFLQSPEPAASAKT
As to the kind of experiment: HiBit Lytic Assay (HiBit DC50, BRD9 degraders of Table 1). Type of assay: cell-based. The following applies: 11-point half log dose response, NanoLuc signal. Here is the method:
Example 3. HiBit Lytic Assay
• Compound is made at 10 mM, half log dilution, 11 points. • MDR plates can also be ordered from Frontier with same format. • 1. Barcode a 384LDV plate (384-well Low Dead Volume Microplate, Labcyte LP-0200) (Echo compatible) on the left side. • 2. Transfer 13.6 μL of 10 mM compound into column 1 of LDV plate (Labcyte). • 3. Fill column 2-11 and column 23 of MDR plate with 9.30 μL of DMSO. • 4. Serial dilute 3.16 fold from column 1 to 2 by transferring 4.30 μL from column 1 to column 2, and so on to column 11. *Change tip in every dilution to prevent compound carryover effect! • 5. Seal the plate with Plate Sealer, then store the MDR plate at room temperature for short term storage and in −20° C. for long term storage.
• Cells are treated with 30 nL of each compound at 10 mM, half log dilution, 11 points with final concentration of 1000 nM or 833 nM, half log dilution, 11 points, in duplicates. Final DMSO concentration is 0.1%. • 1. Barcode the plates made on the left side and label the plates with silver marker. • 2. Dispense with the following scheme: • a. 30 nL of compound into corresponding wells in cell plates via Echo550 with “MDR32_HiBiT16_30 nL”. Top concentration will be 1000 nM. • 3. Seal the plate with Plate Sealer.
• Cells are dispensed at density specified in Cell Line Table in 384-well microplate. • 1. Culture cells to between 50-80% of confluence in sterile culture flasks of appropriate size. • 2. For Adherent Cell Lines: • a. Aspirate off growth media in culture flask, and wash off the Phenol Red media with 5 mL of 1×PBS. • b. Add 5 mL of Trypsin to the cells, incubate at 37° C. for 5 minutes. • c. Add 5 mL of growth media to the trypsinzed cells, and resuspend. • 3. Remove 10 μL of cells, and resuspend the cells with 10 μL of Trypan Blue. Insert the solution to counting chamber slide, and count the cells via cell counter. • 4. Adjust the cell concentration to specified plating density, and strain the cells with cell strainer. • 5. Dispense the cells via E1-ClipTip™ Electronic Multichannel Pipettes or Multidrop™ Combi Reagent Dispenser with Standard tube dispensing cassette: • a. Prime the cassette with 10-20 mL of ddH2O. • b. Prime the cassette with 10-20 mL of cells. • c. Dispense the cells at low speed for 30 μL/well in Corning® 384 Well Low Flange Black Flat Bottom Polystyrene TC-Treated Microplate. • d. Wash the cassette with 10-20 mL of ddH2O, follow by 10-20 mL of 70% EtOH, then again with 10-20 mL of ddH2O. • 6. Incubate the plates at 37° C.×compound treatment time.
• 1. If not already, bring Nano-Glo® HiBiT Lytic Buffer to room temperature. • 2. Determine the amount of reagent needed. A volume of reagent equal to the volume of media in the well should be added (i.e. 30 μL of cells will need 30 μL of HiBiT Lytic reagent). • 3. Into a given volume of buffer, dilute the substrate 50-fold and the LgBiT protein 100-fold. For example, to make 10 ml of reagent, add the following: • 10 ml Nano-Glo® HiBiT Lytic Buffer • 200 μl Nano-Glo® HiBiT Lytic Substrate • 100 μl LgBiT Protein • The reagent should be reconstituted immediately before use. However, once reconstituted, it should take about 4 hours for the activity to decrease 10%. • 4. Cool down the cell plate to room temperature for 10-15 minutes without lid. • 5. Dispense the HiBiT Lytic Reagent via E1-ClipTip™ Electronic Multichannel Pipettes or Multidrop™ Combi Reagent Dispenser with Standard tube dispensing cassette: • a. Prime the cassette with 10-20 mL of ddH2O. • b. Prime the cassette with 10-20 mL of CTG 2.0. • c. Dispense the HiBiT Lytic Reagent at medium speed for 30 μL/well in cell plate to column 1-23 (column 24 will be used as plate background). • d. Wash the cassette with 10-20 mL of ddH2O, follow by 10-20 mL of 70% EtOH, then again with 10-20 mL of ddH2O. • 6. Incubate the cell plate at room temperature for 10 minutes without lid. • 7. […]
For orientation: With HiBiT, luminescence reflects the tagged protein that the partner subunit can reach.
For `COc1cc(-c2cn(C)c(=O)c3c2cnn3C)cc(OC)c1CN(C)CC(=O)NCCCCCCCCNc1cccc2c1C(=O)N(C1CCC(=O)NC1=O)C2=O` (centres unmarked) [Compound 200, 2-[[4-(1,6-dimethyl-7-oxo-pyrazolo[3,4-c]pyridin-4-yl)-2,6-dimethoxy-phenyl]methyl-methyl-amino]-N-[8-[[2-(2,6-dioxo-3-piperidyl)-1,3-dioxo-isoindolin-4-yl]amino]octyl]acetamide], the DC50 is below 0.1 µM.
Compound `COc1cc(-c2cn(C)c(=O)c3[nH]ncc23)cc(OC)c1CN(C)CC(=O)NCCCCCCCCNc1cccc2c1C(=O)N(C1CCC(=O)NC1=O)C2=O` (centres unmarked) [Compound 201, 2-[[2,6-dimethoxy-4-(6-methyl-7-oxo-1H-pyrazolo[3,4-c]pyridin-4-yl)phenyl]methyl-methyl-amino]-N-[8-[[2-(2,6-dioxo-3-piperidyl)-1,3-dioxo-isoindolin-4-yl]amino]octyl]acetamide] had a DC50 below 0.1 µM.
Compound `COc1cc(-c2cn(C)c(=O)c3[nH]ncc23)cc(OC)c1CNCC(=O)NCCCCCCCCCc1ccc2c(c1)C(=O)N(C1CCC(=O)NC1=O)C2=O` (centres unmarked) [Compound 202, 2-[[2,6-dimethoxy-4-(6-methyl-7-oxo-1H-pyrazolo[3,4-c]pyridin-4-yl)phenyl]methylamino]-N-[9-[2-(2,6-dioxo-3-piperidyl)-1,3-dioxo-isoindolin-5-yl]nonyl]acetamide] returned a DC50 below 0.1 µM.
The compound `COc1cc(-c2cn(C)c(=O)c3[nH]ncc23)cc(OC)c1CNCC(=O)NCCCCCCCCCc1cccc2c1C(=O)N(C1CCC(=O)NC1=O)C2=O` (centres unmarked) [Compound 204, 2-[[2,6-dimethoxy-4-(6-methyl-7-oxo-1H-pyrazolo[3,4-c]pyridin-4-yl)phenyl]methylamino]-N-[9-[2-(2,6-dioxo-3-piperidyl)-1,3-dioxo-isoindolin-4-yl]nonyl]acetamide] showed a DC50 below 0.1 µM.
`COc1cc(-c2cn(C)c(=O)c3c2cnn3C)cc(OC)c1CNCC(=O)NCCCCCCCCCc1ccc2c(c1)C(=O)N(C1CCC(=O)NC1=O)C2=O` (centres unmarked) [Compound 206] came in with a DC50 below 0.1 µM.
`COc1cc(-c2cn(C)c(=O)c3[nH]ncc23)cc(OC)c1CNCC(=O)NCCCCCNC(=O)CCc1ccc2c(c1)C(=O)N(C1CCC(=O)NC1=O)C2=O` (centres unmarked) [Compound 207, N-[5-[[2-[[2,6-dimethoxy-4-(6-methyl-7-oxo-1H-pyrazolo[3,4-c]pyridin-4 yl)phenyl]methylamino]acetyl]amino]pentyl]-3-[2-(2,6-dioxo-3-piperidyl)-1,3-dioxo-isoindolin-5-yl]propanamide] returned a DC50 below 0.1 µM.
`COc1cc(-c2cn(C)c(=O)c3c2cnn3C)cc(OC)c1CNCC(=O)NCCCCCCCCCc1cccc2c1C(=O)N(C1CCC(=O)NC1=O)C2=O` (centres unmarked) [Compound 208, 2-[[4-(1,6-dimethyl-7-oxo-pyrazolo[3,4-c]pyridin-4-yl)-2,6-dimethoxy-phenyl]methylamino]-N-[9-[2-(2,6-dioxo-3-piperidyl)-1,3-dioxo-isoindolin-4-yl]nonyl]acetamide]: the DC50 is below 0.1 µM.
Take `COc1cc(-c2cn(C)c(=O)c3c2ccn3C)cc(OC)c1CN(C)CC(=O)NCCCCCCCCNc1cccc2c1C(=O)N(C1CCC(=O)NC1=O)C2=O` (centres unmarked) [Compound 209, 2-[[4-(1,6-dimethyl-7-oxo-pyrrolo[2,3-c]pyridin-4-yl)-2,6-dimethoxy-phenyl]methyl-methyl-amino]-N-[8-[[2-(2,6-dioxo-3-piperidyl)-1,3-dioxo-isoindolin-4-yl]amino]octyl]acetamide]: the DC50 was below 0.1 µM.
Compound `COc1cc(-c2cn(C)c(=O)c3c2ccn3C)cc(OC)c1CN(C)CC(=O)NCCCCCCCCNC(=O)c1ccc(=O)n(C2CCC(=O)NC2=O)c1` (centres unmarked) [Compound 218, N-[8-[[2-[[4-(1,6-dimethyl-7-oxo-pyrrolo[2,3-c]pyridin-4-yl)-2,6-dimethoxy-phenyl]methyl-methyl-amino]acetyl]amino]octyl]-1-(2,6-dioxo-3-piperidyl)-6-oxo-pyridine-3-carboxamide] gave a DC50 below 1 µM.
Take `COc1cc(-c2cn(C)c(=O)c3c2ccn3C)cc(OC)c1CN(C)CC(=O)NCCCCCCCCNc1cccc2c1CN(C1CCC(=O)NC1=O)C2=O` (centres unmarked) [Compound 220, 2-[[4-(1,6-dimethyl-7-oxo-pyrrolo[2,3-c]pyridin-4-yl)-2,6-dimethoxy-phenyl]methyl-methyl-amino]-N-[8-[[2-(2,6-dioxo-3-piperidyl)-1-oxo-isoindolin-4-yl]amino]octyl]acetamide]: the half-maximal degradation concentration (DC50) is below 0.1 µM.
For `COc1cc(-c2cn(C)c(=O)c3cnccc23)cc(OC)c1CNCC(=O)NCCCCCCCCNc1cccc2c1C(=O)N(C1CCC(=O)NC1=O)C2=O` (centres unmarked) [Compound 221, 2-[[2,6-dimethoxy-4-(2-methyl-1-oxo-2,7-naphthyridin-4-yl)phenyl]methylamino]-N-[8-[[2-(2,6-dioxo-3-piperidyl)-1,3-dioxo-isoindolin-4-yl]amino]octyl]acetamide] the value was below 0.1 µM; for `COc1cc(-c2cn(C)c(=O)c3cnccc23)cc(F)c1CN(C)CC(=O)NCCCCCCCCNc1cccc2c1C(=O)N(C1CCC(=O)NC1=O)C2=O` (centres unmarked) [Compound 222, N-[8-[[2-(2,6-dioxo-3-piperidyl)-1,3-dioxo-isoindolin-4-yl]amino]octyl]-2-[[2-fluoro-6-methoxy-4-(2-methyl-1-oxo-2,7-naphthyridin-4-yl)phenyl]methyl-methyl-amino]acetamide], below 0.1 µM; for `COc1cc(-c2cn(C)c(=O)c3cnccc23)cc(OC)c1COCC(=O)NCCCCCCCCNc1cccc2c1C(=O)N(C1CCC(=O)NC1=O)C2=O` (centres unmarked) [Compound 223, 2-[[2,6-dimethoxy-4-(2-methyl-1-oxo-2,7-naphthyridin-4-yl)phenyl]methoxy]-N-[8-[[2-(2,6-dioxo-3-piperidyl)-1,3-dioxo-isoindolin-4-yl]amino]octyl]acetamide], below 0.1 µM.
For `COc1cc(-c2cn(C)c(=O)c3cnccc23)cc(OC)c1C(C)N(C)CC(=O)NCCCCCCCCNc1cccc2c1C(=O)N(C1CCC(=O)NC1=O)C2=O` (centres unmarked) [Compound 224, 2-[1-[2,6-dimethoxy-4-(2-methyl-1-oxo-2,7-naphthyridin-4-yl)phenyl]ethyl-methyl-amino]-N-[8-[[2-(2,6-dioxo-3-piperidyl)-1,3-dioxo-isoindolin-4-yl]amino]octyl]acetamide] the value was below 0.1 µM.
